Drawing on patent US20250236608A1, “EGFR INHIBITORS” (Blueprint Medicines Corporation, priority 2022, published 2025), this text covers IC50 for 21 compounds.

SMILES strings stand for the structures.

One experiment addresses EGFR L858R (Homo sapiens (Human), UniProt P00533, L858R). Put plainly: Biochemical EGFR inhibition assay, EGFR L858R. The settings on record: Caliper mobility shift; 1.0 mM ATP or ATP Km; read-out: Enz EGFR_L858R IC50.
The next experiment addresses EGFR (d746-750) (Homo sapiens (Human), UniProt P00533, DEL746-750). Put plainly: Biochemical EGFR inhibition assay, EGFR (d746-750). The following applies: Caliper mobility shift; 1.0 mM ATP or ATP Km; read-out: Enz EGFR_Exon19-del746-750 IC50.
The target in experiment [1] is pEGFR (Tyr1068) in PC-9 cells (Ex19Del) (Homo sapiens (Human), UniProt P00533, DEL746-750). Briefly: PC-9 pEGFR AlphaLISA assay. The experiment is classed as cell-based. The settings on record: 4 hours incubation, p-EGFR (Tyr1068) AlphaLISA, read-out: Ext pEGFR_PC-9 Ex19Del IC50. Put shortly: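 First, cells settled overnight in 10% FBS medium. Second, a 10-point, 4-fold series of test agents was applied for 4 h at 37° C. Third, lysates were probed with AlphaLISA acceptor and donor beads, incubated overnight in the dark. Last, IC50 was taken from the dose-response.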
Sequence of pEGFR (Tyr1068) in PC-9 cells (Ex19Del) (P00533 other isoform, or with tags, fused parts or gaps del 746-750): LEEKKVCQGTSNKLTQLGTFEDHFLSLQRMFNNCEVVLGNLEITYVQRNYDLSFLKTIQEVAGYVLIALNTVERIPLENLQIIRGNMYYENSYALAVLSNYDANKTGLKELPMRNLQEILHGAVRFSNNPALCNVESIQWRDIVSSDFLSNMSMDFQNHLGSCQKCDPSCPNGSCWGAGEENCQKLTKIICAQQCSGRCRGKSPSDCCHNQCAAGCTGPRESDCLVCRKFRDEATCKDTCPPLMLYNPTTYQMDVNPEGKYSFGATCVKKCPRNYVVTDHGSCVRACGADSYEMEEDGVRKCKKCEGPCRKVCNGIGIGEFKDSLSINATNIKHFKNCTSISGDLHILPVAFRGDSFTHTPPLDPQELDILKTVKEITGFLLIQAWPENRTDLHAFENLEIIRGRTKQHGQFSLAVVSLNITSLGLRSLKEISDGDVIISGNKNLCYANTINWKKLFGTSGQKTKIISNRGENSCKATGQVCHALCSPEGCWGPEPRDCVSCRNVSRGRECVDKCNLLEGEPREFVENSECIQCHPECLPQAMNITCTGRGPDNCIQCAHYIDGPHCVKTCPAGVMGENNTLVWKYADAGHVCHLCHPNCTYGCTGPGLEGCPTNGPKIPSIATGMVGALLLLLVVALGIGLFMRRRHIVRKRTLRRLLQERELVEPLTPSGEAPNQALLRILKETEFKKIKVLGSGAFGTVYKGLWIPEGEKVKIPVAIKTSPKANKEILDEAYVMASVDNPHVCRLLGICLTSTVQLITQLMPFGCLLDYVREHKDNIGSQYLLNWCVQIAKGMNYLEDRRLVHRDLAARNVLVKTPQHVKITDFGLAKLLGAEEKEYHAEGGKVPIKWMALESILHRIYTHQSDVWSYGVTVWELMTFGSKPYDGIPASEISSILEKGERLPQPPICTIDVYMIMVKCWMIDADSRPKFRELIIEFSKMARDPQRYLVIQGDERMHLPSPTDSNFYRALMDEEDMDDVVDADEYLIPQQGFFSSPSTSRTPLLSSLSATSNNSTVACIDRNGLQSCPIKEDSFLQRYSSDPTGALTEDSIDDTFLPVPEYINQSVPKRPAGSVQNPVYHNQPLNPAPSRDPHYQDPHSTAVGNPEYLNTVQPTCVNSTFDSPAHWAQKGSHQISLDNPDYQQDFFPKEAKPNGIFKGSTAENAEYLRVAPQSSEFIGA

Sequence of EGFR L858R (P00533 25-1210 L858R): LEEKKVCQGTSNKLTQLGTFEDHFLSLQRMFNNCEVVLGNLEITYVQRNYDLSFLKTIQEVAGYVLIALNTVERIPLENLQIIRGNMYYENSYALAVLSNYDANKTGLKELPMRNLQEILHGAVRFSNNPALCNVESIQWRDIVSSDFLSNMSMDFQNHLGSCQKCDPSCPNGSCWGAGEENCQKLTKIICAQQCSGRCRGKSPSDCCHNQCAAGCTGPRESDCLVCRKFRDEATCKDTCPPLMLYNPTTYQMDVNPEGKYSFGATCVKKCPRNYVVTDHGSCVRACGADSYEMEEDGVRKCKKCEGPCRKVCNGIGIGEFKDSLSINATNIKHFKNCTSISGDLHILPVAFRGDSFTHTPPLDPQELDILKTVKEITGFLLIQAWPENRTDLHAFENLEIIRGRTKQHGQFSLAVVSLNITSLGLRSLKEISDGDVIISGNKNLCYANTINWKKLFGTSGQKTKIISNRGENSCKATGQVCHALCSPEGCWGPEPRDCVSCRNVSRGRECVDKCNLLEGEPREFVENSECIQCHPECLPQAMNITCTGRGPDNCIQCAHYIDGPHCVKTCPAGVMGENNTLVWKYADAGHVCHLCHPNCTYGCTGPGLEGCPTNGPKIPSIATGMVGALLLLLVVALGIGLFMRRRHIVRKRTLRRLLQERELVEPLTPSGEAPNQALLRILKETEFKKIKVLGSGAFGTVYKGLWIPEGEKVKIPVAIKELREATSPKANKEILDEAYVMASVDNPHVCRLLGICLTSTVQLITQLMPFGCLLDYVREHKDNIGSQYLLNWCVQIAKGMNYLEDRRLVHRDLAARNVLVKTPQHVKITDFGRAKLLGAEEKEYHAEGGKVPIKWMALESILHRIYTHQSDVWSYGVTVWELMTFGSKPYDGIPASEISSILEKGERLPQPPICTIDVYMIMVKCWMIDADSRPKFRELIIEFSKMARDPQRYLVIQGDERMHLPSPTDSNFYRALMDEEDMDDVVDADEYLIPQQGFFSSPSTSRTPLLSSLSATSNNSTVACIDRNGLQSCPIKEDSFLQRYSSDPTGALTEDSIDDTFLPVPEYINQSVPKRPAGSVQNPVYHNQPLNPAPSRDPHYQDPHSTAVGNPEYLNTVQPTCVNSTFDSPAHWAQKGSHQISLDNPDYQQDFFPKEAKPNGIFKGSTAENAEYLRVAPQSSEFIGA
Sequence of EGFR (d746-750) (P00533 other isoform, or with tags, fused parts or gaps del 1-694/del 746-750 limits assumed): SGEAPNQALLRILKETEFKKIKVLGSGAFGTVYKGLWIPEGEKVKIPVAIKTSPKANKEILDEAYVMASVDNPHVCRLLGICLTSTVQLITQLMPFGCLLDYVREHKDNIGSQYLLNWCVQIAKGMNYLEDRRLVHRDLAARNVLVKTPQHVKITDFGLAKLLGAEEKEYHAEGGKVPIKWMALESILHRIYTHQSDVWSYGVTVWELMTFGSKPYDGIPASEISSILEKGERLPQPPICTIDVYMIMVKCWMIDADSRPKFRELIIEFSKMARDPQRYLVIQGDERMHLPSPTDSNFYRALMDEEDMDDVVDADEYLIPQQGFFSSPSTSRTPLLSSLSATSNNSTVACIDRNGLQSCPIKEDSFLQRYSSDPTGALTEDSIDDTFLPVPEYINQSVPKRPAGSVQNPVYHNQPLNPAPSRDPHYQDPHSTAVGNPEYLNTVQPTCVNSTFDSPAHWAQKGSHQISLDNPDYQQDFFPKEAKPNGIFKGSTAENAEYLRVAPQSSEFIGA

With `CCOc1cc2ncnc(-c3cn(C)nc3-c3ccc(F)cc3)c2nc1NC(=O)[C@@]12C[C@@H]1CN(C)C2` (single isomer, unassigned) [Example 375, (1S,5S)—N-(7-ethoxy-4-(3-(4-fluorophenyl)-1-methyl-1H-pyrazol-4-yl)pyrido[3,2-d]pyrimidin-6-yl)-3-methyl-3-azabicyclo[3.1.0]hexane-1-carboxamide or (1R,5R)—N-(7-ethoxy-4-(3-(4-fluorophenyl)-1-methyl-1H-pyrazol-4-yl)pyrido[3,2-d]pyrimidin-6-yl)-3-methyl-3-azabicyclo[3.1.0]hexane-1-carboxamide], the IC50 came out at 2.4 nM on EGFR L858R, 0.9 nM at EGFR (d746-750) and 2.5 nM in experiment [1].

Take `CCOc1cc2ncnc(-c3cn(CC)nc3-c3ccccc3)c2cc1[C@@H](C)O` (single isomer, unassigned) [Example 108, (R)-1-(7-ethoxy-4-(1-ethyl-3-phenyl-1H-pyrazol-4-yl)quinazolin-6-yl)ethan-1-ol or (S)-1-(7-ethoxy-4-(1-ethyl-3-phenyl-1H-pyrazol-4-yl)quinazolin-6-yl)ethan-1-ol]: the IC50 at EGFR L858R is 1.3 nM; on EGFR (d746-750), 0.9 nM; in experiment [1], 2.7 nM.

With `[2H]C([2H])([2H])n1cc(-c2ncnc3cc(OC)c(NC(=O)C4(C(F)(F)F)CC4)nc23)c(-c2ccccc2)n1` [Example 320, N-(7-methoxy-4-(1-(methyl-d3)-3-phenyl-1H-pyrazol-4-yl)pyrido[3,2-d]pyrimidin-6-yl)-1-(trifluoromethyl)cyclopropane-1-carboxamide], the IC50 on EGFR L858R amounted to 2 nM; on EGFR (d746-750), 0.6 nM; in experiment [1], 1.1 nM.

With `CCC(=O)Nc1cc2c(-c3cnn(C4CCOCC4)c3-c3ccccc3)ncnc2cc1OC` [Example 498], the IC50 at EGFR L858R is 306 nM; on EGFR (d746-750), 349 nM; in experiment [1], 589 nM.

Consider `COc1cc2ncnc(-c3cn(C)nc3-c3ccccc3)c2cc1C(O)C1CC1` (stereo not drawn) [Example 128, cyclopropyl (7-methoxy-4-(1-methyl-3-phenyl-1H-pyrazol-4-yl)quinazolin-6-yl)methanol], for which the 50% inhibitory concentration (IC50) stood at 3.6 nM at EGFR L858R, 2.5 nM at EGFR (d746-750) and 12.5 nM in experiment [1].

For `COc1cc2ncnc(-c3cn(C)nc3-c3ccccc3)c2nc1NC(=O)c1cnc(C2CC2)s1` [Example 318, 2-cyclopropyl-N-(7-methoxy-4-(1-methyl-3-phenyl-1H-pyrazol-4-yl)pyrido[3,2-d]pyrimidin-6-yl)thiazole-5-carboxamide], the IC50 came to 0.7 nM on EGFR L858R, 0.4 nM on EGFR (d746-750) and 0.7 nM in experiment [1].

Take `COc1cc2ncnc(-c3cn(C)nc3-c3ccccc3)c2cc1NC(=O)c1cn(C(C)C)nc1C` [Example 217, 1-isopropyl-N-(7-methoxy-4-(1-methyl-3-phenyl-1H-pyrazol-4-yl)quinazolin-6-yl)-3-methyl-1H-pyrazole-4-carboxamide]: the results for the IC50 (at EGFR L858R; at EGFR (d746-750); in experiment [1]) were 1.7 nM, 0.9 nM and 1.2 nM, respectively.

For `CCOc1cc2ncnc(-c3cn(CC(F)F)nc3-c3ccccc3)c2cc1OC` [Example 19, 4-(1-(2,2-difluoroethyl)-3-phenyl-1H-pyrazol-4-yl)-7-ethoxy-6-methoxyquinazoline], the IC50 stood at 1.6 nM at EGFR L858R, 0.8 nM at EGFR (d746-750) and 1.3 nM in experiment [1].

As to `COc1cc2ncnc(-c3cn(C)nc3-c3ccc(F)cc3)c2nc1NC(=O)[C@]12C[C@H]1CN(C)C2` (single isomer, unassigned) [Example 411, (1R,5R)—N-(4-(3-(4-fluorophenyl)-1-methyl-1H-pyrazol-4-yl)-7-methoxypyrido[3,2-d]pyrimidin-6-yl)-3-methyl-3-azabicyclo[3.1.0]hexane-1-carboxamide or (1S,5S)—N-(4-(3-(4-fluorophenyl)-1-methyl-1H-pyrazol-4-yl)-7-methoxypyrido[3,2-d]pyrimidin-6-yl)-3-methyl-3-azabicyclo[3.1.0]hexane-1-carboxamide], the IC50 was 2.6 nM at EGFR L858R, 1.3 nM at EGFR (d746-750) and 2.3 nM in experiment [1].

Consider `COc1cc2ncnc(-c3cn(C)nc3-c3ccccc3)c2cc1O[C@@H]1CN(C)C[C@H]1F` [Example 7, 6-(((3R,4R)-4-fluoro-1-methylpyrrolidin-3-yl)oxy)-7-methoxy-4-(1-methyl-3-phenyl-1H-pyrazol-4-yl)quinazoline], for which the results for the IC50 (at EGFR L858R; on EGFR (d746-750); in experiment [1]) were 3.2 nM, 1.6 nM and 5.5 nM, respectively.

Consider `COc1cc2ncnc(-c3cn(C)nc3-c3ccccc3)c2cc1NC(=O)C(C)N(C)C` (stereo not drawn) [Example 220, 2-(dimethylamino)-N-(7-methoxy-4-(1-methyl-3-phenyl-1H-pyrazol-4-yl)quinazolin-6-yl)propanamide], for which the IC50 on EGFR L858R is 5 nM; on EGFR (d746-750), 1.7 nM; in experiment [1], 4.7 nM.

Regarding `COc1cc2ncnc(-c3cn(C)nc3-c3ccc(F)cc3)c2nc1NC(=O)[C@@]12COC[C@@H]1C2` (single isomer, unassigned) [Example 382, (1R,5R)—N-(4-(3-(4-fluorophenyl)-1-methyl-1H-pyrazol-4-yl)-7-methoxypyrido[3,2-d]pyrimidin-6-yl)-3-oxabicyclo[3.1.0]hexane-1-carboxamide or (1S,5S)—N-(4-(3-(4-fluorophenyl)-1-methyl-1H-pyrazol-4-yl)-7-methoxypyrido[3,2-d]pyrimidin-6-yl)-3-oxabicyclo[3.1.0]hexane-1-carboxamide], the figures for the IC50 (on EGFR L858R; at EGFR (d746-750); in experiment [1]) were 2.4 nM, 0.6 nM and 1.6 nM, respectively.

Consider `CN(C)C12CC(C(=O)Nc3nc4c(-c5cn(C)nc5-c5ccc(F)cc5)ncnc4cc3OC(F)F)(C1)C2` [Example 466, N-[7-(difluoromethoxy)-4-[3-(4-fluorophenyl)-1-methyl-1H-pyrazol-4-yl]pyrido[3,2-d]pyrimidin-6-yl]-3-(dimethylamino) bicyclo[1.1.1]pentane-1-carboxamide], for which the IC50 at EGFR L858R worked out at 39 nM; on EGFR (d746-750) it was 7.3 nM; in experiment [1], 31.2 nM.

On to `COc1cc2ncnc(-c3cn(C)nc3-c3ccccc3)c2cc1NC(=O)C1CCC1` [Example 347, N-(7-methoxy-4-(1-methyl-3-phenyl-1H-pyrazol-4-yl)quinazolin-6-yl)cyclobutanecarboxamide], for which the IC50 on EGFR L858R stood at 2.4 nM; at EGFR (d746-750) it was 1.2 nM; in experiment [1], 0.6 nM.

In the case of `COc1cc2ncnc(-c3cn(C)nc3-c3ccccc3)c2nc1O[C@@H](C)c1cocn1` [Example 39, (S)-4-(1-((7-methoxy-4-(1-methyl-3-phenyl-1H-pyrazol-4-yl)pyrido[3,2-d]pyrimidin-6-yl)oxy)ethyl) oxazole], the figures for the IC50 (at EGFR L858R; at EGFR (d746-750); in experiment [1]) were 3.5 nM, 2.1 nM and 5.3 nM, respectively.

As for `COc1cc2ncnc(-c3cn(C)nc3-c3ccccc3)c2cc1NC(=O)[C@H]1C[C@@H]1C(F)(F)F` [Example 287, (1S,2S)—N-(7-methoxy-4-(1-methyl-3-phenyl-1H-pyrazol-4-yl)quinazolin-6-yl)-2-(trifluoromethyl)cyclopropane-1-carboxamide], the IC50 on EGFR L858R was found to be 4.5 nM; at EGFR (d746-750), 1.2 nM; in experiment [1], 13 nM.

In the case of `COc1cc2ncnc(-c3cn(CC(F)F)nc3-c3ccccc3)c2nc1NC(=O)[C@@]12C[C@@H]1CN(C)C2` (single isomer, unassigned) [Example 397, (1R,5R)—N-(4-(1-(2,2-difluoroethyl)-3-phenyl-1H-pyrazol-4-yl)-7-methoxypyrido[3,2-d]pyrimidin-6-yl)-3-methyl-3-azabicyclo[3.1.0]hexane-1-carboxamide or (1S,5S)—N-(4-(1-(2,2-difluoroethyl)-3-phenyl-1H-pyrazol-4-yl)-7-methoxypyrido[3,2-d]pyrimidin-6-yl)-3-methyl-3-azabicyclo[3.1.0]hexane-1-carboxamide], the figures for the IC50 (at EGFR L858R; on EGFR (d746-750); in experiment [1]) were 2.3 nM, 1 nM and 1.6 nM, respectively.

Regarding `COc1cc2ncnc(-c3cn(C)nc3-c3ccccc3)c2cc1NC(=O)C1C2COCC21` (stereo not drawn) [Example 223, N-(7-methoxy-4-(1-methyl-3-phenyl-1H-pyrazol-4-yl)quinazolin-6-yl)-3-oxabicyclo[3.1.0]hexane-6-carboxamide], the IC50 on EGFR L858R worked out at 2.9 nM; at EGFR (d746-750) it was 2.1 nM; in experiment [1] it was 3.2 nM.

`COc1cc2ncnc(-c3cn(C)nc3-c3ccccc3)c2cc1OC(=O)N1CCN(C)[C@H](C)[C@@H]1C` [Example 98, 7-methoxy-4-(1-methyl-3-phenyl-1H-pyrazol-4-yl)quinazolin-6-yl (2S,3R)-2,3,4-trimethylpiperazine-1-carboxylate]: the IC50 at EGFR L858R is 6.8 nM; on EGFR (d746-750) it was 3.4 nM; in experiment [1] it was 9.3 nM.

For `COc1cc2ncnc(-c3cn(C)nc3-c3ccccc3)c2cc1-c1cccc2c1nc(CO)n2C` [Example 148, (4-(7-methoxy-4-(1-methyl-3-phenyl-1H-pyrazol-4-yl)quinazolin-6-yl)-1-methyl-1H-benzo[d]imidazol-2-yl)methanol], the values for the IC50 (at EGFR L858R; on EGFR (d746-750); in experiment [1]) were 7 nM, 3 nM and 8.3 nM, respectively.

Take `COc1cc2ncnc(-c3cn(C)nc3-c3ccccc3)c2nc1O[C@@H](C)c1csc(C)n1` [Example 33, (S)-4-(1-((7-methoxy-4-(1-methyl-3-phenyl-1H-pyrazol-4-yl)pyrido[3,2-d]pyrimidin-6-yl)oxy)ethyl)-2-methylthiazole]: the values for the IC50 (on EGFR L858R; on EGFR (d746-750); in experiment [1]) were 1.1 nM, 0.7 nM and 0.8 nM, respectively.
